Assay results taken from patent US7544694B2, “Substituted diaza-spiro-[5.5]-undecane derivatives and their use as neurokinin antagonists” (Janssen Pharmaceutica N.V., priority 2004, dated 2009).

Key:
Format in all cases: cell-based
NK1 = NK1 (Homo sapiens, UniProt P25103); experiment: Signal transduction (ST), intracellular Ca++ (FLIPR), functional NK1 antagonistic activity; details: antagonist, read-out: NK1 pIC50 (converted)
Description: (§1) This test evaluates in vitro functional NK1 antagonistic activity. For the measurements of intracellular Ca^++ concentrations the cells were grown on 96-well (black wall/transparent bottom) plates from Costar for 2 days until they reached confluence. The cells were loaded with 2 μM Fluo3 in DMEM containing 0.1% BSA and 2.5 mM probenecid for 1 h at 37° C. They were washed 3× with a Krebs buffer (140 mM NaCl, 1 mM MgCl2×6H2O, 5 mM KCl, 10 mM glucose, 5 mM HEPES; 1.25 mM CaCl2; pH 7.4) containing 2.5 mM probenecid and 0.1% BSA (Ca^++-buffer). The cells were preincubated with a concentration range of antagonists for 20 min at RT and Ca^++-signals after addition of the agonists were measured in a Fluorescence Image Plate Reader (FLIPR from Molecular Devices, Crawley, England). The peak of the Ca^++-transient was considered as the relevant signal and the mean values of corresponding wells were analysed as described below.
(§2) The sigmoidal dose response curves were analysed by computerised curve-fitting, using the GraphPad Program. The EC50-value of a compound is the effective dose showing 50% of maximal effect. For mean curves the response to the agonist with the highest potency was normalised to 100%. For antagonist responses the IC50-value was calculated using non-linear regression.
(§3) The last columns indicate—without being limited thereto—for which action the compounds might be most suitable. Of course, since for some neurokinin receptors no data was determined, it is obvious that these compounds might be attributed to another suitable use.

NK2 = target: T1, NK2 (Homo sapiens, UniProt P21452); experiment: Signal transduction (ST), intracellular Ca++ (FLIPR), NK2; details: antagonist, read-out: NK2 pIC50 (converted)
T1 sequence (P21452 1-398): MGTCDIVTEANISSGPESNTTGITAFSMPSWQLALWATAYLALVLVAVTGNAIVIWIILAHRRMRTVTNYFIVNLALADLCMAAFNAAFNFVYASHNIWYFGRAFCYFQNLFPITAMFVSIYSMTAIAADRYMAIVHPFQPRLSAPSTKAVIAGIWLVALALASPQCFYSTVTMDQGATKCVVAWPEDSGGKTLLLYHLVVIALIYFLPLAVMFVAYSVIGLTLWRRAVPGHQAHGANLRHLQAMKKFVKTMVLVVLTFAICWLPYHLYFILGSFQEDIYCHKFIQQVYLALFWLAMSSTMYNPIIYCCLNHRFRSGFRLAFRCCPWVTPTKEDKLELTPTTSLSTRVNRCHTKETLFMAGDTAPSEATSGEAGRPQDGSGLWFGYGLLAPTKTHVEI
Description: [The source words this procedure for another target and reports this target under the same test.] as §1, §2, §3

NK3 = target: T2, NK3 (Homo sapiens, UniProt P29371); experiment: Signal transduction (ST), intracellular Ca++ (FLIPR), NK3; details: antagonist, read-out: NK3 pIC50 (converted)
T2 sequence (P29371 1-465): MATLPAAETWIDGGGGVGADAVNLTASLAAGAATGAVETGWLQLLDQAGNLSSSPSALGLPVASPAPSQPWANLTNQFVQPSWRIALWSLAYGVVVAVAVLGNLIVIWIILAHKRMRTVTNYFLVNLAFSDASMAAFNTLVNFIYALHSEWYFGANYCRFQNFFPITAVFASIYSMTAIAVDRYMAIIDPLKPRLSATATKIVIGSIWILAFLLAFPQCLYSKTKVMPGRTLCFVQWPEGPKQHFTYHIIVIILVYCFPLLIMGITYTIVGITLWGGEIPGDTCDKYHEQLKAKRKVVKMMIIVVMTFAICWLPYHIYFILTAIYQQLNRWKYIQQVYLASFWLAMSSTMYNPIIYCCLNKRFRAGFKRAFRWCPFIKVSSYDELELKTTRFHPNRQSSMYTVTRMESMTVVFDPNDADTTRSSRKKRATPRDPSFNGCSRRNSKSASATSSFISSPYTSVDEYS
Description: [The source words this procedure for another target and reports this target under the same test.] as §1, §2, §3

Sequence of NK1 (P25103 whole entry): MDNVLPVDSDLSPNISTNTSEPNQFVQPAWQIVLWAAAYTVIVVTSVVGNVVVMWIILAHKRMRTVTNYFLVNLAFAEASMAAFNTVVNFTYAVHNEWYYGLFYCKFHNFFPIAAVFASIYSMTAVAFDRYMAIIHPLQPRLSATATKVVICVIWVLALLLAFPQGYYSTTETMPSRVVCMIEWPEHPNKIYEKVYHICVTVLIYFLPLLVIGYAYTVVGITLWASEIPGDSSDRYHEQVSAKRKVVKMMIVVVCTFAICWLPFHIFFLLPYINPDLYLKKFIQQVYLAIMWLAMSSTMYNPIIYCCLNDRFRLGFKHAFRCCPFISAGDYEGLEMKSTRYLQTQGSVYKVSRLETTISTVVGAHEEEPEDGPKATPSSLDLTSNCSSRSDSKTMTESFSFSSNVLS

IC50 (NK1) | IC50 (NK2) | IC50 (NK3) | Structure (SMILES)
57.5 nM | 9770 nM | > 10000 nM | Cc1nc2ccc(C(=O)N3CCC4(CC3)CCN([C@H]3CCN(C(=O)c5cc(C(F)(F)F)cc(C(F)(F)F)c5)[C@H](Cc5ccccc5)C3)CC4)cc2[nH]1 [Compound 67]
81.3 nM | 5500 nM | > 10000 nM | O=C(C1CCN(C(=O)c2cc(C(F)(F)F)cc(C(F)(F)F)c2)C(Cc2ccccc2)C1)N1CCC2(CCN(Cc3ccccc3)CC2)CC1 (stereo not drawn) [Compound 185]
112 nM | > 10000 nM | 1320 nM | O=C(c1ccoc1)N1CCC2(CC1)CCN([C@H]1CCN(C(=O)c3cc(C(F)(F)F)cc(C(F)(F)F)c3)[C@H](Cc3ccccc3)C1)CC2 [Compound 24]
29.5 nM | 3630 nM | > 10000 nM | O=C(c1ccncc1)N1CCC2(CC1)CCN([C@H]1CCN(C(=O)c3cc(C(F)(F)F)cc(C(F)(F)F)c3)[C@H](Cc3ccccc3)C1)CC2 [Compound 51]
33.1 nM | 3390 nM | 3980 nM | O=C(c1cc(C(F)(F)F)cc(C(F)(F)F)c1)N1CC[C@H](N2CCC3(CC2)CCN(S(=O)(=O)Cc2ccccc2)CC3)C[C@H]1Cc1ccccc1 [Compound 126]
41.7 nM | 3020 nM | > 10000 nM | O=C(C(CO)c1ccccc1)N1CCC2(CC1)CCN([C@H]1CCN(C(=O)c3cc(C(F)(F)F)cc(C(F)(F)F)c3)[C@H](Cc3ccccc3)C1)CC2 (stereo partly drawn) [Compound 88]
158 nM | 5130 nM | 6920 nM | CS(=O)(=O)c1ccccc1S(=O)(=O)N1CCC2(CCN([C@H]3CCN(C(=O)c4cc(C(F)(F)F)cc(C(F)(F)F)c4)[C@H](Cc4ccccc4)C3)CC2)CC1 [Compound 125]
107 nM | 3980 nM | > 10000 nM | O=C(c1ccccn1)N1CCC2(CC1)CCN([C@H]1CCN(C(=O)c3cc(C(F)(F)F)cc(C(F)(F)F)c3)[C@H](Cc3ccccc3)C1)CC2 [Compound 49]
49 nM | 2000 nM | 6030 nM | Cc1noc(C)c1S(=O)(=O)N1CCC2(CCN([C@H]3CCN(C(=O)c4cc(C(F)(F)F)cc(C(F)(F)F)c4)[C@H](Cc4ccccc4)C3)CC2)CC1 [Compound 101]
204 nM | ~229 nM | 5370 nM | O=C(c1cc(C(F)(F)F)cc(C(F)(F)F)c1)N1CC[C@H](N2CCC3(CC2)CCN(S(=O)(=O)c2c(Cl)cccc2Cl)CC3)C[C@H]1Cc1ccccc1 [Compound 111]
263 nM | 4680 nM | > 10000 nM | O=C(c1cc(C(F)(F)F)cc(C(F)(F)F)c1)N1CC[C@H](N2CCC3(CC2)CCN(S(=O)(=O)Cc2cccc(Cl)c2)CC3)C[C@H]1Cc1ccccc1 [Compound 127]
36.3 nM | 2570 nM | 8910 nM | COc1cccc(CCC(=O)N2CCC3(CC2)CCN([C@H]2CCN(C(=O)c4cc(C(F)(F)F)cc(C(F)(F)F)c4)[C@H](Cc4ccccc4)C2)CC3)c1 [Compound 83]
186 nM | > 10000 nM | > 10000 nM | O=C(c1ccc2c(c1)OCO2)N1CCC2(CC1)CCN([C@H]1CCN(C(=O)c3cc(C(F)(F)F)cc(C(F)(F)F)c3)[C@H](Cc3ccccc3)C1)CC2 [Compound 62]
105 nM | 6310 nM | > 10000 nM | O=C(c1ccc(=O)oc1)N1CCC2(CC1)CCN([C@H]1CCN(C(=O)c3cc(C(F)(F)F)cc(C(F)(F)F)c3)[C@H](Cc3ccccc3)C1)CC2 [Compound 46]
37.2 nM | 2750 nM | 851 nM | O=C1CC2(CCN1Cc1ccoc1)CCN([C@H]1CCN(C(=O)c3cc(C(F)(F)F)cc(C(F)(F)F)c3)[C@H](Cc3ccccc3)C1)CC2 [Compound 199]
468 nM | 1260 nM | ~10000 nM | O=C(c1cc(C(F)(F)F)cc(C(F)(F)F)c1)N1CC[C@H](N2CCC3(CC2)CCN(S(=O)(=O)c2cc(Cl)c(Cl)s2)CC3)C[C@H]1Cc1ccccc1 [Compound 96]
